What all share (experiment): KINOMEscan (ScanMAX) kinase profiling
Holding throughout (assay type): binding

The target of assay [1] is T1, panel of 468 kinases (Homo sapiens, UniProt Q04912).
T1 construct: purchased KINOMEscan (ScanMAX) service
The settings on record: MST1R; 1 μM; read-out: % control.

Assay [2] has as its target T2, panel of 468 kinases (Homo sapiens, UniProt P57078).
T2 construct: purchased KINOMEscan (ScanMAX) service
T2 sequence (P57078 1-832): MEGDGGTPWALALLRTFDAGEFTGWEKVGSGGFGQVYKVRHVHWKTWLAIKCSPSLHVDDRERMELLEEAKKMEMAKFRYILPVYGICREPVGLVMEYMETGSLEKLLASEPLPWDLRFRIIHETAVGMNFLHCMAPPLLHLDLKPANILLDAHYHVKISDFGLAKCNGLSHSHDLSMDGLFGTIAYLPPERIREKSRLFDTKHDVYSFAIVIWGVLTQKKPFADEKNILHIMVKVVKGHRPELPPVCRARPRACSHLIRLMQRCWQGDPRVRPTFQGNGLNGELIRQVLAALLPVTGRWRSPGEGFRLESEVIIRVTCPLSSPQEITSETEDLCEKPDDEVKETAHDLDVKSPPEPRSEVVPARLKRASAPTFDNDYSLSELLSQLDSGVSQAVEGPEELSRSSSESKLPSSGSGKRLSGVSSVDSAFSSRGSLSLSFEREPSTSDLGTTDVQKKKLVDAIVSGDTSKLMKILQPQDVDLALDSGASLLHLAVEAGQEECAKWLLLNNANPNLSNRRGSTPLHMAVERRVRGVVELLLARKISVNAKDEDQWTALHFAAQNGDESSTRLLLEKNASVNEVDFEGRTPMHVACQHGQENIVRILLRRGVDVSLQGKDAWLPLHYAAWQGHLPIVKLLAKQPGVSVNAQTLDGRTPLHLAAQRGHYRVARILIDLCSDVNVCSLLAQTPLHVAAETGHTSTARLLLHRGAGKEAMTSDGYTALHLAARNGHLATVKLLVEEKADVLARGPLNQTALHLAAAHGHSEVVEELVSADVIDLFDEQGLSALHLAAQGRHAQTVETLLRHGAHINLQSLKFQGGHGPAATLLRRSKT
Particulars: RIPK4; 1 μM; read-out: % control.

Assay [3] has as its target T3, panel of 468 kinases (Homo sapiens, UniProt P54764).
T3 construct: purchased KINOMEscan (ScanMAX) service
Particulars: EPHA4; 1 μM; read-out: % control.

Assay [4] addresses T4, panel of 468 kinases (Homo sapiens, UniProt Q00536).
T4 construct: purchased KINOMEscan (ScanMAX) service
The settings on record: PCTK1; 1 μM; read-out: % control.

Assay [5] has as its target T5, panel of 468 kinases (Homo sapiens, UniProt O94804).
T5 construct: purchased KINOMEscan (ScanMAX) service
The settings on record: LOK; 1 μM; read-out: % control.

In assay [6] the target is T6, panel of 468 kinases (Homo sapiens, UniProt P54753).
T6 construct: purchased KINOMEscan (ScanMAX) service
T6 sequence (P54753 34-998): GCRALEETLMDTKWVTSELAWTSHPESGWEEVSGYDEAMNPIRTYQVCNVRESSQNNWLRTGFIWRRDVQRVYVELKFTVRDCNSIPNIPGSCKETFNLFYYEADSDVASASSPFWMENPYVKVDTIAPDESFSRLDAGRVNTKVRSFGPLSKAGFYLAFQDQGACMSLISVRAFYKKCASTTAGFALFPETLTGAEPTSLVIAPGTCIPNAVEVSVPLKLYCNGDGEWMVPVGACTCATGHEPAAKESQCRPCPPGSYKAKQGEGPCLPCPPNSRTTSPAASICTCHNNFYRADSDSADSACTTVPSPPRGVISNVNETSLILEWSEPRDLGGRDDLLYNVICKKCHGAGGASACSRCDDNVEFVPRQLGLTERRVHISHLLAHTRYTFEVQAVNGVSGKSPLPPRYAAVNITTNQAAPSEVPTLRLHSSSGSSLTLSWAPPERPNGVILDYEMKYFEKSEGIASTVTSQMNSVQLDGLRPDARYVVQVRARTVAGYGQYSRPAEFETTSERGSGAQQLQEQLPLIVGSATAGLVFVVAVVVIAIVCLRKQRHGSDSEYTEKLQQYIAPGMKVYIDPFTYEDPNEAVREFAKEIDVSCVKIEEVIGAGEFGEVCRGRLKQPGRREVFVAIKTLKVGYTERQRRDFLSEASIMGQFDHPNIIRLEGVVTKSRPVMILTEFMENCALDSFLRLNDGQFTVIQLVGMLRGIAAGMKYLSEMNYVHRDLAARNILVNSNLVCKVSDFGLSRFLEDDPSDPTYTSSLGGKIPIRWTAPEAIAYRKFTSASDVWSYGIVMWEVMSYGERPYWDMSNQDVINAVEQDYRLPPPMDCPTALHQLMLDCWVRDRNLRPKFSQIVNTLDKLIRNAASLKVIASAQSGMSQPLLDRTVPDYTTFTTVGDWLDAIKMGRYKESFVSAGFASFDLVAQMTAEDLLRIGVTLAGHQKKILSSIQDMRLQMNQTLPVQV
The settings on record: EPHB3; 1 μM; read-out: % control.

Each structure is given as a SMILES string.

T5 sequence (O94804 whole entry): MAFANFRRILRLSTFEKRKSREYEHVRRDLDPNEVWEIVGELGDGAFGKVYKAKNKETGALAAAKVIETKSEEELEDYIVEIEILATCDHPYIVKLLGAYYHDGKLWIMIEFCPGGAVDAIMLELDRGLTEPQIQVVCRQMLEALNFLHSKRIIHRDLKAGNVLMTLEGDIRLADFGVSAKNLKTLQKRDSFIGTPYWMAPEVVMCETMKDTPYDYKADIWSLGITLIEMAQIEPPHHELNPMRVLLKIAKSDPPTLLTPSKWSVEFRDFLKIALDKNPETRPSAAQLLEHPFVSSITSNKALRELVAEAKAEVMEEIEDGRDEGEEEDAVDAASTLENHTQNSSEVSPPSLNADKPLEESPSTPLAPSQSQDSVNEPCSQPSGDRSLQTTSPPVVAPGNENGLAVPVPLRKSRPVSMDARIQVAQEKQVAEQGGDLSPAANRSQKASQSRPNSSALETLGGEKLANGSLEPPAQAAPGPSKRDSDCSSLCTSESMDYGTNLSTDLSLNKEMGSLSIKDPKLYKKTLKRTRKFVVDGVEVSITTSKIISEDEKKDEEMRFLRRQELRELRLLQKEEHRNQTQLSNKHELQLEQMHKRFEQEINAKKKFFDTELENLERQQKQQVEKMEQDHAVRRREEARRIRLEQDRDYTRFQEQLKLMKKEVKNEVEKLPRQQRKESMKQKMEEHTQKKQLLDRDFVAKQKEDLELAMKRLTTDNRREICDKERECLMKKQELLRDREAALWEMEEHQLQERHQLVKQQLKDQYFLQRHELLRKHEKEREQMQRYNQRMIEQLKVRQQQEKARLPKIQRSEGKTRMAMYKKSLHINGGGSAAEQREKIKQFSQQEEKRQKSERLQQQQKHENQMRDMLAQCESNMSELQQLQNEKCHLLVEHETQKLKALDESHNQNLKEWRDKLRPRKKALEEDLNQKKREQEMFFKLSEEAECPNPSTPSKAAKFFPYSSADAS
T3 sequence (P54764 20-986): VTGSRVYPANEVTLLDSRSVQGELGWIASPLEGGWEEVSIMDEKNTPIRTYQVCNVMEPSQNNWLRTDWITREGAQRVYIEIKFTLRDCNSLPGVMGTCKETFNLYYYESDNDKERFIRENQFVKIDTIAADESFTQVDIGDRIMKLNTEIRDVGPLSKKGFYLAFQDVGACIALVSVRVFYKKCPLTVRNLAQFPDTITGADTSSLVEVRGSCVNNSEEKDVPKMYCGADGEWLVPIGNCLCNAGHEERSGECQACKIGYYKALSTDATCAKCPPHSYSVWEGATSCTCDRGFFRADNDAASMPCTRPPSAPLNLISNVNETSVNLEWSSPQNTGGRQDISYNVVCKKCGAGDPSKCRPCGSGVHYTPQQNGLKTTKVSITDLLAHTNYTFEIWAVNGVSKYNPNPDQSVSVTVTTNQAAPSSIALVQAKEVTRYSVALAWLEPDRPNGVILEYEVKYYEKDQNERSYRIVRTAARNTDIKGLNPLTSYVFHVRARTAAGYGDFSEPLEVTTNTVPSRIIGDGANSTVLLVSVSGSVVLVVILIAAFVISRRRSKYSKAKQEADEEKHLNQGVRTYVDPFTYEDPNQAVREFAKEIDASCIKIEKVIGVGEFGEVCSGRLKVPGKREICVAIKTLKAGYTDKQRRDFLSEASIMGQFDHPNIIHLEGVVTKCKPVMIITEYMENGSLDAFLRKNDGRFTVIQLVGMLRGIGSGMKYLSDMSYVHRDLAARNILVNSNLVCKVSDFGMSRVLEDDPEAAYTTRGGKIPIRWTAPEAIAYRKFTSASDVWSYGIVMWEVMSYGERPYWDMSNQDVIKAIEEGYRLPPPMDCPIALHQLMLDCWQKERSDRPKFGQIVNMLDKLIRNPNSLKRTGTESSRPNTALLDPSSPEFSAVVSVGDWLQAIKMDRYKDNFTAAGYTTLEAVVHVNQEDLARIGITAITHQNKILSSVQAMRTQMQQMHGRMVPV
T1 sequence (Q04912 25-1400): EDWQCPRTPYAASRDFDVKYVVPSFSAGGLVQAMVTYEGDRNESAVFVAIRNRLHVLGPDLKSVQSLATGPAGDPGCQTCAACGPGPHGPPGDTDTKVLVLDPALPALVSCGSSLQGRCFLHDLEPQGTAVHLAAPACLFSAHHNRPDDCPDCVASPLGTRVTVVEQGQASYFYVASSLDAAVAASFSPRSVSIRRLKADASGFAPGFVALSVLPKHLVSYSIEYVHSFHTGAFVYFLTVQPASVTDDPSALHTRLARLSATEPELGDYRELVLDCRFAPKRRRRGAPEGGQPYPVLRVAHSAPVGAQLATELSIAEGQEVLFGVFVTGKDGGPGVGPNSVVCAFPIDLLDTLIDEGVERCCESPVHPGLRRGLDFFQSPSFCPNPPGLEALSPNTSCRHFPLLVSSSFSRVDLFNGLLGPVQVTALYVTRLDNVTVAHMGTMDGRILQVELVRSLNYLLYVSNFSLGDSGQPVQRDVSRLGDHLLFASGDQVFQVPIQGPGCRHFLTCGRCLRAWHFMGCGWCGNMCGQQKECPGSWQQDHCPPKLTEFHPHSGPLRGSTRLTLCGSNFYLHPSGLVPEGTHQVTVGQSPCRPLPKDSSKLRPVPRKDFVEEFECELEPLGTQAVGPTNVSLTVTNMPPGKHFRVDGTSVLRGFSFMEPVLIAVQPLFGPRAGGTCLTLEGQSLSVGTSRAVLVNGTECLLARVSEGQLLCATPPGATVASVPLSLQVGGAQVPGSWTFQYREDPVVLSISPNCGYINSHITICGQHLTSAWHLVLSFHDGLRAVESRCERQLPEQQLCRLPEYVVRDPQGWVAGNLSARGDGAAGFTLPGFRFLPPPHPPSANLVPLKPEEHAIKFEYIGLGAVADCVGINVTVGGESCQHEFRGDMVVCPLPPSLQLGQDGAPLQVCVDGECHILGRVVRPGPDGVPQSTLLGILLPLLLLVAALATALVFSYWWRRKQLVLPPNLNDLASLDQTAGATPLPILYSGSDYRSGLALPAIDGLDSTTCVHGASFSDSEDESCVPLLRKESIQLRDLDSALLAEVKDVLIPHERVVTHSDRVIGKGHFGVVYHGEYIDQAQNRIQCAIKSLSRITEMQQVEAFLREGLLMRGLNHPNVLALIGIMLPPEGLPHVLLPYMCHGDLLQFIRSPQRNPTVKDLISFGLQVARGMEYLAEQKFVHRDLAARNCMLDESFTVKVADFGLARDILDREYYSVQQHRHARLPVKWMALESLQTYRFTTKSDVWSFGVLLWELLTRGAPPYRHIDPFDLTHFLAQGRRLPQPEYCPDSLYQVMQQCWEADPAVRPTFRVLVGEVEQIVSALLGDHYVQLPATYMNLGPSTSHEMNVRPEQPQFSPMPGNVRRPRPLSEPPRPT
T4 sequence (Q00536 whole entry): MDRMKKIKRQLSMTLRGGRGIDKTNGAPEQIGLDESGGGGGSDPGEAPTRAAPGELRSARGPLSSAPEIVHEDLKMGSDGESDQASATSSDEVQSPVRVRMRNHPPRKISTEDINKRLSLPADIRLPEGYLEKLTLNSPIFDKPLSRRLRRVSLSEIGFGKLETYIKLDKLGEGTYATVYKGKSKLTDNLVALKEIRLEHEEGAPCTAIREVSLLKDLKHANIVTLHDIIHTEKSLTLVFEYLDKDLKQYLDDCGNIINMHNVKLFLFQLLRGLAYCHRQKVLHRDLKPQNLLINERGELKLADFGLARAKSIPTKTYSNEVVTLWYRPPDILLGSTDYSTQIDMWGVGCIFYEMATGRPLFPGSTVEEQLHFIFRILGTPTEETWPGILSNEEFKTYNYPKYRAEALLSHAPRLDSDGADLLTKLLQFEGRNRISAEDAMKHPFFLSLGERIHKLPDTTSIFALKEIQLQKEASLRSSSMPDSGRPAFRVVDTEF

As for `CNc1nc(Nc2ccc(S(=O)(=O)N3CCC(N4CCOCC4)CC3)cc2OC)nc2[nH]cc(Cl)c12` [Compound 12, 5-chloro-N2-(2-methoxy-4-((4-morpholinopiperidin-1-yl)sulfonyl)phenyl)-N4-methyl-7H-pyrrolo[2,3-d]pyrimidine-2,4-diamine], the remaining binding at 1 µM turned out to be 100% on panel of 468 kinases [1]; 76% at panel of 468 kinases [2]; 86% at panel of 468 kinases [3]; 64% at panel of 468 kinases [4]; 94% on panel of 468 kinases [5]; 100% on panel of 468 kinases [6].

Consider `CNc1nc(Nc2ccc(C(=O)N3CCC(N4CCOCC4)CC3)c3c2OCO3)nc2[nH]cc(Cl)c12` [Compound 75, (7-((5-chloro-4-(methylamino)-7H-pyrrolo[2,3-d]pyrimidin-2-yl)amino)benzo[d][1,3]dioxol-4-yl)(4-morpholinopiperidin-1-yl)methanone], for which the remaining binding at 1 µM at panel of 468 kinases [1] was 100%; on panel of 468 kinases [2] it was 89%; at panel of 468 kinases [3] it was 92%; at panel of 468 kinases [4], 60%; on panel of 468 kinases [5], 96%; on panel of 468 kinases [6], 100%.

Consider `CNc1nc(Nc2ccc(P3(=O)CCN(C4CCOCC4)CC3)cc2OC)nc2[nH]cc(Cl)c12` [Compound 77, 4-(4-((5-chloro-4-(methylamino)-7H-pyrrolo[2,3-d]pyrimidin-2-yl)amino)-3-methoxyphenyl)-1-(tetrahydro-2H-pyran-4-yl)-1,4-azaphosphinane 4-oxide], for which the remaining binding at 1 µM at panel of 468 kinases [1] amounted to 100%; at panel of 468 kinases [2] it was 98%; at panel of 468 kinases [3], 79%; on panel of 468 kinases [4] it was 84%; at panel of 468 kinases [5], 90%; on panel of 468 kinases [6], 100%.

These data come from patent US12479847B2 (DANA-FARBER CANCER INSTITUTE, INC., priority 2019, dated 2025).
